# Target: Human TASK-1 channels (Homo sapiens (Human), UniProt O14649)
# Experiment: Activity on the TASK-1 channel in Xenopus oocytes (two-microelectrode voltage clamp)
# Assay type: cell-based
# Settings: not given
# Protocol: Human TASK-1 channels were expressed in Xenopus oocytes. For this purpose, oocytes were isolated from Xenopus laevis and defoliculated. Subsequently, TASK-1-encoding RNA synthesized in vitro was injected into oocytes. […] Data were acquired and analyzed using a TEC-10cx amplifier (NPI Electronic, Tamm, Germany) connected to an ITC-16 interface (Instrutech Corp., Long Island, USA) and Pulse software (HEKA Elektronik, Lambrecht, Germany). […] Oocytes were continuously superfused with ND96 buffer containing: NaCl 96 mM, KCl 2 mM, CaCl2 1.8 mM, MgCl2 1 mM, HEPES 5 mM (pH adjusted to 7.4 with NaOH). All experiments were performed at room temperature.
# Test substances were consecutively added to the bath solution at rising concentrations. […] IC50 values were obtained by fitting the data to the general dose-response equation.
# Sequence of Human TASK-1 channels (O14649 whole entry): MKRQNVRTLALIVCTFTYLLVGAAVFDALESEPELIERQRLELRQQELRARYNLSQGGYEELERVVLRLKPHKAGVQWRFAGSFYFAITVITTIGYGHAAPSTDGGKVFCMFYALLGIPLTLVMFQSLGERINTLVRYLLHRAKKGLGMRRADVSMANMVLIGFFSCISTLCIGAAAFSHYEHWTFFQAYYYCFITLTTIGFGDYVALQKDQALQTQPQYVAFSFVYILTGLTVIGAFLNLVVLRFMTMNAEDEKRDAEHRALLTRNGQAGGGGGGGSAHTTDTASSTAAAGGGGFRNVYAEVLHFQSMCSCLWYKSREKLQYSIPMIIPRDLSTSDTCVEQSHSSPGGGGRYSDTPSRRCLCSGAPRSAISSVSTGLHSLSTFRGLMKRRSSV
row,SMILES,inhibition at 5 µM
1,"CC(=O)N1CCc2c(c(-c3cccc(C#N)c3)nn2Cc2cc(F)ccc2F)C1 [Example 6ay, 3-[5-Acetyl-1-(2,5-difluoro-benzyl)-4,5,6,7-tetrahydro-1H-pyrazolo[4,3-c]pyridin-3-yl]-benzonitrile]",86%
2,"CC(=O)N1CCc2c(c(-c3cccc(C)c3)nn2Cc2ccc(F)cc2F)C1 [Example 6az, 1-[1-(2,4-Difluoro-benzyl)-3-m-tolyl-1,4,6,7-tetrahydro-pyrazolo[4,3-c]pyridin-5-yl]-ethanone]",89%
3,"CC(=O)N1CCc2c(c(-c3cccc(Cl)c3)nn2Cc2ccc(F)cc2C)C1 [Example 6ba, 1-[3-(3-Chloro-phenyl)-1-(4-fluoro-2-methyl-benzyl)-1,4,6,7-tetrahydro-pyrazolo[4,3-c]pyridin-5-yl]-ethanone]",81%
4,"CC(=O)N1CCc2c(c(-c3cccc(C)c3)nn2Cc2ccccc2F)C1 [Example 6bb, 1-[1-(2-Fluoro-benzyl)-3-m-tolyl-1,4,6,7-tetrahydro-pyrazolo[4,3-c]pyridin-5-yl]-ethanone]",82%
5,"COc1ccccc1Cn1nc(-c2cccc(C(F)(F)F)c2)c2c1CCN(C(C)=O)C2 [Example 6bc, 1-[1-(2-Methoxy-benzyl)-3-(3-trifluoromethyl-phenyl)-1,4,6,7-tetrahydro-pyrazolo[4,3-c]pyridin-5-yl]-ethanone]",70%
6,"CC(=O)N1CCc2c(c(-c3cccc(C(F)(F)F)c3)nn2Cc2ccc(C)cc2F)C1 [Example 6bn, 1-[1-(2-Fluoro-4-methyl-benzyl)-3-(3-trifluoromethyl-phenyl)-1,4,6,7-tetrahydro-pyrazolo[4,3-c]pyridin-5-yl]-ethanone]",81%
7,"CC(=O)N1CCc2c(c(-c3ccnc(Br)c3)nn2Cc2ccc(F)cc2F)C1 [Example 6k, 1-[3-(2-Bromo-pyridin-4-yl)-1-(2,4-difluoro-benzyl)-1,4,6,7-tetrahydro-pyrazolo[4,3-c]pyridin-5-yl]-ethanone]",78%
8,"CC(=O)N1CCc2c(c(-c3cccc(C)c3)nn2Cc2ccc(Cl)nc2)C1 [Example 6p, 1-[1-(6-Chloro-pyridin-3-ylmethyl)-3-m-tolyl-1,4,6,7-tetrahydro-pyrazolo[4,3-c]pyridin-5-yl]-ethanone]",88%
9,"COc1ccnc(Cn2nc(-c3cccc(C(F)(F)F)c3)c3c2CCN(C(C)=O)C3)c1 [Example 6q, 1-[1-(4-Methoxy-pyridin-2-ylmethyl)-3-(3-trifluoromethyl-phenyl)-1,4,6,7-tetrahydro-pyrazolo[4,3-c]pyridin-5-yl]-ethanone]",70%
10,"CC(=O)N1CCc2c(c(-c3cccc(C)c3)nn2Cc2cnccc2Cl)C1 [Example 6r, 1-[1-(4-Chloro-pyridin-3-ylmethyl)-3-m-tolyl-1,4,6,7-tetrahydro-pyrazolo[4,3-c]pyridin-5-yl]-ethanone]",79%
11,"COc1cccnc1Cn1nc(-c2cccc(C(F)(F)F)c2)c2c1CCN(C(C)=O)C2 [Example 6s, 1-[1-(3-Methoxy-pyridin-2-ylmethyl)-3-(3-trifluoromethyl-phenyl)-1,4,6,7-tetrahydro-pyrazolo[4,3-c]pyridin-5-yl]-ethanone]",83%
12,"CC(=O)N1CCc2c(c(-c3cccc(Cl)c3)nn2Cc2ncccc2C)C1 [Example 6t, 1-[3-(3-Chloro-phenyl)-1-(3-methyl-pyridin-2-ylmethyl)-1,4,6,7-tetrahydro-pyrazolo[4,3-c]pyridin-5-yl]-ethanone]",62%
13,"CC(=O)N1CCc2c(c(-c3cccc(C(F)(F)F)n3)nn2C(C)c2ccc(F)cc2)C1 (stereo not drawn) [Example 6u, 1-[1-[1-(4-Fluoro-phenyl)-ethyl]-3-(6-trifluoromethyl-pyridin-2-yl)-1,4,6,7-tetrahydro-pyrazolo[4,3-c]pyridin-5-yl]-ethanone]",89%
14,"CC(=O)N1CCc2c(c(-c3cccc(C)n3)nn2Cc2ccc(F)cc2F)C1 [Example 6v, 1-[1-(2,4-Difluoro-benzyl)-3-(6-methyl-pyridin-2-yl)-1,4,6,7-tetrahydro-pyrazolo[4,3-c]pyridin-5-yl]-ethanone]",73%

# Same assay, conditions: human TASK-1 expressed in Xenopus oocytes, currents during pulses to 40 mV, room temperature
row,SMILES,IC50
1,"CC(=O)N1CCc2c(c(-c3cccc(OC(F)(F)F)c3)nn2C(C)c2ccc(F)cc2)C1 (stereo not drawn) [Example 6aw, 1-[1-[1-(4-Fluoro-phenyl)-ethyl]-3-(3-trifluoromethoxy-phenyl)-1,4,6,7-tetrahydro-pyrazolo[4,3-c]pyridin-5-yl]-ethanone]",0.947 µM
2,"COc1cc(-c2nn(Cc3ccc(F)cc3F)c3c2CN(C(C)=O)CC3)ccc1F [Example 6ax, 1-[1-(2,4-Difluoro-benzyl)-3-(4-fluoro-3-methoxy-phenyl)-1,4,6,7-tetrahydro-pyrazolo[4,3-c]pyridin-5-yl]-ethanone]",0.975 µM
3,"CC(=O)N1CCc2c(c(-c3cccc(C(F)(F)F)c3)nn2Cc2ccc(Cl)nc2)C1 [Example 6b, 1-[1-(6-Chloro-pyridin-3-ylmethyl)-3-(3-trifluoromethyl-phenyl)-1,4,6,7-tetrahydro-pyrazolo[4,3-c]pyridin-5-yl]-ethanone]",0.172 µM
4,"COc1cccc(Cn2nc(-c3cccc(Cl)c3)c3c2CCN(C(C)=O)C3)c1 [Example 6bd, 1-[3-(3-Chloro-phenyl)-1-(3-methoxy-benzyl)-1,4,6,7-tetrahydro-pyrazolo[4,3-c]pyridin-5-yl]-ethanone]",< 10 µM
5,"CC(=O)N1CCc2c(c(-c3ccc(F)cc3)nn2Cc2ccc(Cl)c(F)c2)C1 [Example 6bg, 1-[1-(4-Chloro-3-fluoro-benzyl)-3-(4-fluoro-phenyl)-1,4,6,7-tetrahydro-pyrazolo[4,3-c]pyridin-5-yl]-ethanone]",0.398 µM
6,"COc1ccc(F)c(-c2nn(Cc3ccc(F)cc3F)c3c2CN(C(C)=O)CC3)c1 [Example 6bh, 1-[1-(2,4-Difluoro-benzyl)-3-(2-fluoro-5-methoxy-phenyl)-1,4,6,7-tetrahydro-pyrazolo[4,3-c]pyridin-5-yl]-ethanone]",< 10 µM
7,"CC(=O)N1CCc2c(c(-c3ccc(F)c(C#N)c3)nn2Cc2ccc(F)cc2F)C1 [Example 6bi, 5-[5-Acetyl-1-(2,4-difluoro-benzyl)-4,5,6,7-tetrahydro-1H-pyrazolo[4,3-c]pyridin-3-yl]-2-fluoro-benzonitrile]",1.65 µM
8,"CC(=O)N1CCc2c(c(-c3cccc(F)c3)nn2Cc2ccc(F)cc2F)C1 [Example 6bj, 1-[1-(2,4-Difluoro-benzyl)-3-(3-fluoro-phenyl)-1,4,6,7-tetrahydro-pyrazolo[4,3-c]pyridin-5-yl]-ethanone]",1.16 µM
9,"CC(=O)N1CCc2c(c(-c3ccc(C(F)(F)F)cc3)nn2Cc2ccc(F)cc2F)C1 [Example 6bk, 1-[1-(2,4-Difluoro-benzyl)-3-(4-trifluoromethyl-phenyl)-1,4,6,7-tetrahydro-pyrazolo[4,3-c]pyridin-5-yl]-ethanone]",1.15 µM
10,"CC(=O)N1CCc2c(c(-c3cccc(C(F)(F)F)c3)nn2Cc2cnccc2Cl)C1 [Example 6c, 1-[1-(4-Chloro-pyridin-3-ylmethyl)-3-(3-trifluoromethyl-phenyl)-1,4,6,7-tetrahydro-pyrazolo[4,3-c]pyridin-5-yl]-ethanone]",0.215 µM
11,"CC(=O)N1CCc2c(c(-c3cccc(C(F)(F)F)c3)nn2Cc2ncccc2C)C1 [Example 6d, 1-[1-(3-Methyl-pyridin-2-ylmethyl)-3-(3-trifluoromethyl-phenyl)-1,4,6,7-tetrahydro-pyrazolo[4,3-c]pyridin-5-yl]-ethanone]",0.422 µM
12,"CC(=O)N1CCc2c(c(-c3ccc(F)cc3)nn2Cc2ccc(F)cc2F)C1 [Example 6f, 1-[1-(2,4-Difluoro-benzyl)-3-(4-fluoro-phenyl)-1,4,6,7-tetrahydro-pyrazolo[4,3-c]pyridin-5-yl]-ethanone]",0.598 µM
13,"CC(=O)N1CCc2c(c(-c3cccc(C(F)(F)F)n3)nn2Cc2ccc(F)cc2)C1 [Example 6g, 1-[1-(4-Fluoro-benzyl)-3-(6-trifluoromethyl-pyridin-2-yl)-1,4,6,7-tetrahydro-pyrazolo[4,3-c]pyridin-5-yl]-ethanone]",0.0995 µM
14,"CC(=O)N1CCc2c(c(-c3cc(C(F)(F)F)ccn3)nn2Cc2ccc(F)cc2F)C1 [Example 6h, 1-[1-(2,4-Difluoro-benzyl)-3-(4-trifluoromethyl-pyridin-2-yl)-1,4,6,7-tetrahydro-pyrazolo[4,3-c]pyridin-5-yl]-ethanone]",0.19 µM
15,"CC(=O)N1CCc2c(c(-c3cccc(C(F)(F)F)n3)nn2Cc2ccc(F)cc2F)C1 [Example 6i, 1-[1-(2,4-Difluoro-benzyl)-3-(6-trifluoromethyl-pyridin-2-yl)-1,4,6,7-tetrahydro-pyrazolo[4,3-c]pyridin-5-yl]-ethanone]",0.216 µM
16,"CC(=O)N1CCc2c(c(-c3cc(Br)ccn3)nn2Cc2ccc(F)cc2F)C1 [Example 6j, 1-[3-(4-Bromo-pyridin-2-yl)-1-(2,4-difluoro-benzyl)-1,4,6,7-tetrahydro-pyrazolo[4,3-c]pyridin-5-yl]-ethanone]",< 10 µM
17,"CC(=O)N1CCc2c(c(-c3cncc(Br)c3)nn2Cc2ccc(F)cc2F)C1 [Example 6m, 1-[3-(5-Bromo-pyridin-3-yl)-1-(2,4-difluoro-benzyl)-1,4,6,7-tetrahydro-pyrazolo[4,3-c]pyridin-5-yl]-ethanone]",2.44 µM
18,"CC(=O)N1C2CCC1c1c(-c3cccc(C#N)c3)nn(Cc3ccc(F)cc3F)c1C2 (stereo not drawn) [Example 6n, 3-[11-Acetyl-5-(2,4-difluoro-benzyl)-4,5,11-triaza-tricyclo[6.2.1.02,6]undeca-2(6),3-dien-3-yl]-benzonitrile]",0.091 µM
19,"CC(=O)N1C2CCC1c1c(-c3ccc(F)cc3)nn(Cc3ccc(F)cc3F)c1C2 (stereo not drawn) [Example 6o, 1-[5-(2,4-Difluoro-benzyl)-3-(4-fluoro-phenyl)-4,5,11-triaza-tricyclo [6.2.1.02,6]undeca-2(6),3-dien-11-yl]-ethanone]",< 10 µM

# — patent publication US9127001B2, “Substituted 4,5,6,7-tetrahydro-1H-pyrazolo[4,3-c]pyridines, their use as medicament, and pharmaceutical preparations comprising them” (Sanofi, priority 2011, dated 2015)
